Experimental data taken from paper PMC12679585, “Design, synthesis, and characterization of novel 5-ethylsulfonyl-indazole-3-carboxamides as dual VEGFR-2 and EGFR inhibitors: apoptotic antiproliferative and immunomodulatory evaluations” (RSC Advances, 2025).

What was measured:
[1] = Cell viability assay (MTT) on normal mammary epithelial cells; assay type: cell-based; conditions: human, MCF-10A normal mammary gland epithelial cells, four days
Method: This test assesses the safety of new compounds 8a–l on normal cell lines. The efficacy of 8a–l was tested on the normal human mammary gland epithelial cell line MCF-10A. MCF-10A cells were incubated with 50 µM of each tested compound for four days. Cell viability was assessed using the MTT assay.[11,48] Appendix A has extra experimental details.
This assay evaluates the impact of novel compounds 8a–l on normal cell lines to determine their safety, an essential consideration in drug discovery. The efficacy of the examined compounds was evaluated utilizing the normal human mammary gland epithelial cell line MCF-10A. […]
4.2. Biological evaluation
4.2.1 Cell Viability assay (MTT assay)
MTT assay was performed to investigate the effect of the synthesized compounds on mammary epithelial cells (MCF-10A). The cells were propagated in medium consisting of Ham's F-12 medium/ Dulbecco's modified Eagle's medium (DMEM) (1:1) supplemented with 10% foetal calf serum (GIBCO, UK), 2 mM glutamine, insulin (10 μg/mL), hydrocortisone (500 ng/mL) and epidermal growth factor (20 ng/mL). Trypsin ethylenediamine tetra acetic acid (EDTA) was used to passage the cells after every 2-3 days. 96-well flat-bottomed cell culture plates were used to seed the cells at a density of 10^4 cells mL-1. The medium was aspirated from all the wells of culture plates after 24 h followed by the addition of synthesized compounds (in 200 μL medium to yield a final concentration of 0.1% (v/v) dimethyl sulfoxide) into individual wells of the plates.
Four wells were designated to a single compound. The plates were allowed to incubate at 37°C for 96 h. Afterwards, the medium was aspirated and 3-[4,5-dimethylthiazol-2-yl]-2,5-diphenyltetrazolium bromide (MTT) (0.4 mg/mL) in medium was added to each well and subsequently incubated for 3 h. The medium was aspirated and 150 μL dimethyl sulfoxide (DMSO) was added to each well. The plates were vortexed followed by the measurement of absorbance at 540 nm on a microplate reader. […]

[2] = tested on: HCT-116 and MCF-7; test: Antiproliferative assay, average over the two cell lines; assay type: cell-based; conditions: Homo sapiens; average of HCT-116 and MCF-7; read-out: Average IC50 (GI50)
From the text: The MTT assay[53,54] was employed to evaluate the antiproliferative efficacy of new compounds 8a–l against two human cancer cell lines: MCF-7 (breast) and HCT-116 (colorectal carcinoma). Erlotinib was employed as the benchmark. Check Appendix A for additional experimental information.
The MTT assay[53,54] was used to evaluate the antiproliferative properties of novel compounds 8a–l against two human cancer cell lines: MCF-7 (breast cancer) and HCT-116 (colorectal carcinoma). Erlotinib was utilized as the reference. […] The provided values represent the means of three experiments ± standard deviation (SD).

[3] = tested on: Bcl-2; test: Apoptotic markers assay: Bcl-2 level in HCT-116 cells; assay type: cell-based, human
From the text: Appendix A gives more details.
Apoptosis dysregulation is a hallmark of human cancer, resulting in uncontrolled proliferation, insufficient response to treatments, and the formation of drug-resistant cells.[60] As a result, current anticancer therapies are recognized for their ability to induce apoptosis in cancer cells via both extrinsic and intrinsic routes.[56]
The Bcl-2 protein family, comprising pro-apoptotic proteins (Bax) and anti-apoptotic proteins (Bcl-2), primarily regulates apoptosis. […] As a result, we evaluated the level of Bcl-2 and Bax proteins in HCT-116 colorectal cancer cells subjected to treatments with compounds 8g and 8h. […]
wash solution to every well. Repeat the wash 4 more times for a total of 5 washes. After the final wash, empty or aspirate the wells and firmly tap the plate on a lint free paper towel to remove any remaining wash buffer. Pipet 100 μL of yellow Antibody into each well, except the Blank. Seal the plate and incubate at room temperature on a plate shaker for 1 hour at ~500 rpm. Empty the contents of the wells and wash by adding 400 μL of […]
towel to remove any remaining wash buffer. Add 100 μL of blue Conjugate to each […]
for 30 minutes at ~500 rpm. Empty the contents of the wells and wash by adding 400 μL of wash solution to every well. Repeat the wash 4 more times for a total of 5 washes.
After the final wash, empty or aspirate the wells and firmly tap the plate on a lint free paper towel to remove any remaining wash buffer. Pipet 100 μL of Substrate Solution into each well. Incubate for 30 minutes at room temperature on a plate shaker at ~500 rpm. Pipet 100 μL Stop Solution to each well. Blank the plate reader against the Blank wells, read the optical density at 450 nm. Calculate the average net Optical Density (OD) bound for each standard and sample by subtracting the average Blank OD from the average OD for each standard and sample. […]
Approximate a straight line through the points. The concentration of Bax in the unknowns can be determined by interpolation. […]

[4] = In vitro cytotoxicity against normal human cells (MTT); assay type: cell-based; conditions: human, WI-38 cells (normal human diploid cell line), normal human diploid cell line WI-38, MTT
From the text: (§1) The results indicated a favorable safety margin for the evaluated compounds about normal cells, Table 5.

[5] = tested on: WI-38; test: as above; assay type: cell-based; conditions: for Selectivity index (SI), HCT-116: WI-38 versus HCT-116; for Selectivity index (SI), MCF-7: WI-38 versus MCF-7; for IC50: normal human diploid cell line WI-38, MTT
From the text: as §1

[6] = target: EGFR (Homo sapiens, UniProt P00533); test: EGFR inhibitory assay (EGFR-TK assay)
Method: Erlotinib was used as positive control in the assay.
To record autophosphorylation level, EGFR kinase assay was carried out on the basis of DELFIA/Time-Resolved Fluorometry. The compounds were first dissolved in DMSO
absolute, subsequent to dilution to appropriate concentration using HEPES (25 mM) at
pH 7.4. Each compound (10 μL) was incubated with recombinant enzyme (10 μL, 5 ng for EGFR, 1:80 dilution in 100 mM HEPES) for 10 min at 25 °C, subsequent to the addition of 5X buffer (10 μL, containing 2 mM MnCl2, 100 μM Na3VO4, 20 mM HEPES and 1 mM DTT) and ATP-MgCl2 (20 μL, containing 0.1 mM ATP and 50 mM MgCl2) and incubation for 1h. The negative and positive controls were included in each plate by the incubation of enzyme either with or without ATP-MgCl2. The liquid was removed after incubation and the plates were washed thrice using a wash buffer.
Europium-tagged antiphosphotyrosine antibody (75 μL, 400 ng) was added to each well followed by incubation of 1h and then washing of the plates using buffer. The enhancement solution was added to each well and the signal was recorded at excitation
The autophosphorylation percentage inhibition by compounds was calculated using the following equation:
Using the curves of percentage inhibition of eight concentrations of each compound,
were from EGFR because the enzyme preparation contained low impurities.

[7] = tested on: TNF-α; test: TNF-α level by qRT-PCR in HCT-116 cells; conditions: for TNF-α (% inhibition): HCT-116 cells, 24 hours, at IC50 against HCT-116 (8g 24 nM, 8h 23 nM), qRT-PCR
Method: The reference molecule was dexamethasone, a drug that uniformly regulates the immune system.
TNF-α and IL6 a determination
determined using of q RT-PCR technique. By using q RTPCR (reference), the amount
treated HCT-116 cells was measured (at the IC50 concentrations). Total RNA was
accordance with the manufacturer's instructions (RNeasy mini kit, Qiagen, Germany).
Following RNA extraction, the Revert Aid First Strand cDNA Synthesis kit (Thermo
Scientific, USA) was used to create cDNA. The Rotor-Gene Q real-time PCR thermal
cycler was used to amplify target cDNA for apoptosis markers and GAPDH [as a
normalization (housekeeping) gene] using one step RT-PCR SYBR® Green kit Master
Mix (Bio-Rad Laboratories, USA). Two microliters of cDNA were combined with one
microliter of forward primer, one microliter of reverse primer, ten microliters of master
mixture, and twenty microliters of nuclease-free water to complete the reaction volume.
Every experiment was carried out three times.
Quantitative Real Time Reverse-Transcriptase PCR (qRT-PCR) primer sequences
TNF-α : R 5'- [sequence] -3'.
IL6 : R 5'- [sequence] -3
GAPDH : R 5’- [sequence]-3’

[8] = Homo sapiens, HCT-116, read-out: TNF-α (% inhibition), HCT-116 cells, 24 hours, at IC50 against HCT-116 (8g 24 nM, 8h 23 nM), qRT-PCR

EGFR, sequence (P00533 669-1210): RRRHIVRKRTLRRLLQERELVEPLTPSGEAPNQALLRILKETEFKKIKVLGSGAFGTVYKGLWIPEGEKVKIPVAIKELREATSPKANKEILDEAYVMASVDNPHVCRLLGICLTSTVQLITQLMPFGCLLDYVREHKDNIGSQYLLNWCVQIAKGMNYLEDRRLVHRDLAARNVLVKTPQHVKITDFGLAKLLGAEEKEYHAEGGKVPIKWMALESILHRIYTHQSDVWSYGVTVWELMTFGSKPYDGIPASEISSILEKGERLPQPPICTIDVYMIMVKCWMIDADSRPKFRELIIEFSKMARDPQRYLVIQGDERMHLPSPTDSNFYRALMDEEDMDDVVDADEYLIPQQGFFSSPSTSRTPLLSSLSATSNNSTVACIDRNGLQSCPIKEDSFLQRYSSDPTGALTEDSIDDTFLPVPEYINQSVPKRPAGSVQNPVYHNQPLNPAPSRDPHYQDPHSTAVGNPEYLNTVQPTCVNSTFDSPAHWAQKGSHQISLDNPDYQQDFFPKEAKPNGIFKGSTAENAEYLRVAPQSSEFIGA

Row | IC50 [2] [nM] | IC50 [6] [nM] | Structure (SMILES) | viability at 4 days, 50 µM [1] [%] | Bcl-2 level [3] [ng/mL] | IC50 [4] [nM] | Selectivity index (SI), HCT-116 [5] | Selectivity index (SI), MCF-7 [5] | IC50 [5] [nM] | TNF-α (% inhibition) [7] [%] | inhibition at 0.024 µM [7, 8] [%] | Bcl-2 fold reduction ([3]; relative to untreated control) [fold] | inhibition at 0.023 µM [7, 8] [%]
1 | 26 | 71 ± 5 | CCS(=O)(=O)c1ccc2[nH]nc(C(=O)NNC(=O)NC34CC5CC(CC(C5)C3)C4)c2c1 [Compound 8g, 2-(5-(Ethylsulfonyl)-1H-indazole-3-carbonyl)-N-(adamantan-1-yl)hydrazine-1-carboxamide] | 91 | 1.60 ± 0.001 | > 120 | >6.0 | >5.0 | > 150 | 79 | ~80 | – | –
2 | 24 | 68 ± 5 | CCS(=O)(=O)c1ccc2[nH]nc(C(=O)NNC(=O)NC3CCCCCC3)c2c1 [Compound 8h, 2-(5-(Ethylsulfonyl)-1H-indazole-3-carbonyl)-N-(cycloheptyl)hydrazine-1-carboxamide] | 90 | 1.30 ± 0.001 | > 120 | >6.5 | >6.0 | > 150 | 82 | – | 3.90 | ~80
